What was measured:
Settings in all cases: 1 mM ATP; inhibitor
EPHA1 = EPHA1 (Homo sapiens, UniProt P21709)
Protocol: (§1) Kinase selectivity panel Kinome profiling was conducted by AssayQuant Technologies (Marlboro, MA) using Sox chromophore technology and Sox-based peptide substrates developed for human kinases in a 384-well format. Compounds were tested at 1 µM in the presence of 1 mM ATP.

PLK2 = PLK2 (Homo sapiens, UniProt Q9NYY3)
Protocol: as §1

TTBK2 = TTBK2 (Homo sapiens, UniProt Q6IQ55)
Protocol: as §1

STK10/LOK = STK10/LOK (Homo sapiens, UniProt O94804)
Protocol: as §1

TSSK3 = TSSK3 (Homo sapiens, UniProt Q96PN8)
Protocol: as §1

PKN3 = PKN3 (Homo sapiens, UniProt Q6P5Z2)
Protocol: as §1

SNRK = SNRK (Homo sapiens, UniProt Q9NRH2)
Protocol: as §1

KSR1 = KSR1 (Homo sapiens, UniProt Q8IVT5)
Protocol: as §1

MAP3K7 = MAP3K7 (Homo sapiens, UniProt O43318)
Protocol: as §1

EPHB1 = EPHB1 (Homo sapiens, UniProt P54762)
Protocol: as §1

ZNF33A/ZAK = target: T1, ZNF33A/ZAK (Homo sapiens, UniProt Q9NYL2)
T1 construct: gene MAP3K20
Protocol: as §1

PINK1 = PINK1 (Homo sapiens, UniProt Q9BXM7)
Protocol: as §1

PDK1 = target: T2, PDK1 (Homo sapiens, UniProt O15530)
T2 construct: gene PDPK1
Protocol: as §1

NTRK3/TRKC = NTRK3/TRKC (Homo sapiens, UniProt Q16288)
Protocol: as §1

GSK3B = GSK3B (Homo sapiens, UniProt P49841)
Protocol: as §1

CDC42BPA/MRCKA = CDC42BPA/MRCKA (Homo sapiens, UniProt Q5VT25)
Protocol: as §1

MASTL = MASTL (Homo sapiens, UniProt Q96GX5)
Protocol: as §1

PDGFRB = PDGFRB (Homo sapiens, UniProt P09619)
Protocol: as §1

MYO3A = MYO3A (Homo sapiens, UniProt Q8NEV4)
Protocol: as §1

CDK9/T1 = CDK9/T1 (Homo sapiens, UniProt P50750)
Protocol: as §1

EPHB2 = EPHB2 (Homo sapiens, UniProt P29323)
Protocol: as §1

MAPKAPK5/MK5 = MAPKAPK5/MK5 (Homo sapiens, UniProt Q8IW41)
Protocol: as §1

SYK = SYK (Homo sapiens, UniProt P43405)
Protocol: as §1

MNK2 = target: T3, MNK2 (Homo sapiens, UniProt Q9HBH9)
T3 construct: gene MKNK2
Protocol: as §1

SLK = SLK (Homo sapiens, UniProt Q9H2G2)
Protocol: as §1

MYLK3 = MYLK3 (Homo sapiens, UniProt Q32MK0)
Protocol: as §1

PRKAA2/AMPK211 = PRKAA2/AMPK211 (Homo sapiens, UniProt P54646)
Protocol: as §1

CAMKK1 = CAMKK1 (Homo sapiens, UniProt Q8N5S9)
Protocol: as §1

NTRK2/TRKB = NTRK2/TRKB (Homo sapiens, UniProt Q16620)
Protocol: as §1

NEK9 = NEK9 (Homo sapiens, UniProt Q8TD19)
Protocol: as §1

GSK3A = GSK3A (Homo sapiens, UniProt P49840)
Protocol: as §1

LRRK2 = LRRK2 (Homo sapiens, UniProt Q5S007)
Protocol: as §1

SIK1 = SIK1 (Homo sapiens, UniProt P57059)
Protocol: as §1

CSNK1G2/CK1G2 = CSNK1G2/CK1G2 (Homo sapiens, UniProt P78368)
Protocol: as §1

RPS6KA6/RSK4 = RPS6KA6/RSK4 (Homo sapiens, UniProt Q9UK32)
Protocol: as §1

DCLK1/DCAML1 = DCLK1/DCAML1 (Homo sapiens, UniProt O15075)
Protocol: as §1

MAPK13/P38D = MAPK13/P38D (Homo sapiens, UniProt O15264)
Protocol: as §1

CSNK1A1/CK1A1 = CSNK1A1/CK1A1 (Homo sapiens, UniProt P48729)
Protocol: as §1

Sequence of NTRK3/TRKC (Q16288 whole entry): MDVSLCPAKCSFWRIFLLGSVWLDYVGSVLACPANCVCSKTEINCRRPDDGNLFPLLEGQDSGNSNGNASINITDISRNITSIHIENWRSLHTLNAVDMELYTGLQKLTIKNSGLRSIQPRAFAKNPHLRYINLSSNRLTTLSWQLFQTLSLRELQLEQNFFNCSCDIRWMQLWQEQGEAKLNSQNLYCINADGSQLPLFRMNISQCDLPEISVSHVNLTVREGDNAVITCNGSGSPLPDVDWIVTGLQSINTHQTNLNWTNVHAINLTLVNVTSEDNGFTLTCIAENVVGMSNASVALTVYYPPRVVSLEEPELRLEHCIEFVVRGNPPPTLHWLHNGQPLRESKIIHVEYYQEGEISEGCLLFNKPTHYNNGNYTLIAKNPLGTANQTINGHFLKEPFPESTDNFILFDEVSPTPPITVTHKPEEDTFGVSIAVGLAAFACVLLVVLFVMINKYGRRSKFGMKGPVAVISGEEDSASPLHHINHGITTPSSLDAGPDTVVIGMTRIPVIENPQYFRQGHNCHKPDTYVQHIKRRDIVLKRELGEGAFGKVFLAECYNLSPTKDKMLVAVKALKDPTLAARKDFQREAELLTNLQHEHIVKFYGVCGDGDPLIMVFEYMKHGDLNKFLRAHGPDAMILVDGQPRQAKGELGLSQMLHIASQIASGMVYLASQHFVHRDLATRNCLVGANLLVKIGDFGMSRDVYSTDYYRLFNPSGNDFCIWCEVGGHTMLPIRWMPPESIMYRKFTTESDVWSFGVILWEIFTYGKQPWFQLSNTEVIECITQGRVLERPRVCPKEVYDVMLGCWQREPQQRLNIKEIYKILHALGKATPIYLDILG
Sequence of PDGFRB (P09619 whole entry): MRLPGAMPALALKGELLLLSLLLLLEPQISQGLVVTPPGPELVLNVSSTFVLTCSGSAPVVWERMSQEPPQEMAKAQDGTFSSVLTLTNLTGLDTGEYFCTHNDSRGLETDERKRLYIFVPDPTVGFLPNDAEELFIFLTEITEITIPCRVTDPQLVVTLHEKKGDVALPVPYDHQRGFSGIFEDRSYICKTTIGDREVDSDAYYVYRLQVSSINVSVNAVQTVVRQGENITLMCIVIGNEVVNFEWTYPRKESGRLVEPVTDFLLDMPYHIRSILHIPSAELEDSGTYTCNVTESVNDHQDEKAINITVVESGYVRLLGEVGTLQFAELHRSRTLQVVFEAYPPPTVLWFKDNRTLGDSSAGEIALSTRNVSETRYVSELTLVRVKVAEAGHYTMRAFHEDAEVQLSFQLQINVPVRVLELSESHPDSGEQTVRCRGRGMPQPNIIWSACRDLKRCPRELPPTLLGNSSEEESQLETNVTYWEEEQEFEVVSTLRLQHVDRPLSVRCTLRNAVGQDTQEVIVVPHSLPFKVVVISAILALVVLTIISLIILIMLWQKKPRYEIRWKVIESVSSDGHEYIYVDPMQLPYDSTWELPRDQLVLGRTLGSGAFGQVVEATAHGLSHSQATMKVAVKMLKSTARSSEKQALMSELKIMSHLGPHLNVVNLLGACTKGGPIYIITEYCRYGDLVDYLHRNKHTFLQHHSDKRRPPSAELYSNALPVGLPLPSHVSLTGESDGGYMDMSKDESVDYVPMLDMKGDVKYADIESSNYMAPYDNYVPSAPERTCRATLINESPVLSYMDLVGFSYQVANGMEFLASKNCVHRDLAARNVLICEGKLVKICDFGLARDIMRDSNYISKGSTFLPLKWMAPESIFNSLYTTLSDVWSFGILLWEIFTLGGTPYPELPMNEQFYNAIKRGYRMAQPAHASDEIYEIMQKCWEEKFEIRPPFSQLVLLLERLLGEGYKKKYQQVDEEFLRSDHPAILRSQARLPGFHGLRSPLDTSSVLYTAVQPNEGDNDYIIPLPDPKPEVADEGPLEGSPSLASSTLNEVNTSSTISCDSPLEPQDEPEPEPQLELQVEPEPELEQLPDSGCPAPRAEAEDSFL
Sequence of SNRK (Q9NRH2 whole entry): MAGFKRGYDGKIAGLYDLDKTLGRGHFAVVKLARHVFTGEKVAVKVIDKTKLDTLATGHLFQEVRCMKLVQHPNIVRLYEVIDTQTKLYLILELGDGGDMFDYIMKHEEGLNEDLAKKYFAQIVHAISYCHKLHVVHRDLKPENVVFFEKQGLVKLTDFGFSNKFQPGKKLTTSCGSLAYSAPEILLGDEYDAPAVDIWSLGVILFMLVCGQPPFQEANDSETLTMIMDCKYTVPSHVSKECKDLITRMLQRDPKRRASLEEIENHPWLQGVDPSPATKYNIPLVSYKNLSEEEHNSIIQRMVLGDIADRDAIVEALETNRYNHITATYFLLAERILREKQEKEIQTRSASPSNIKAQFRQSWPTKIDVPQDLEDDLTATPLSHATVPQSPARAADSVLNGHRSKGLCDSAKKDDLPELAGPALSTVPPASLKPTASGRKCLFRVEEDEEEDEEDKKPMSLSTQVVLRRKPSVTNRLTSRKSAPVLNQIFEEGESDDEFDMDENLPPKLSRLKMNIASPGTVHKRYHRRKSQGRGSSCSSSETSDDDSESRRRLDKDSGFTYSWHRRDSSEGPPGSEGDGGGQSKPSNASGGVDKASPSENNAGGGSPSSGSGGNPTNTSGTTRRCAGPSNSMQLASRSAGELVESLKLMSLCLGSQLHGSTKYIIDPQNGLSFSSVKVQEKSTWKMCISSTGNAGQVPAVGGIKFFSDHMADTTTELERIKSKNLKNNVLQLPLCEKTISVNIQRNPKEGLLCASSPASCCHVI
Sequence of CDC42BPA/MRCKA (Q5VT25 whole entry): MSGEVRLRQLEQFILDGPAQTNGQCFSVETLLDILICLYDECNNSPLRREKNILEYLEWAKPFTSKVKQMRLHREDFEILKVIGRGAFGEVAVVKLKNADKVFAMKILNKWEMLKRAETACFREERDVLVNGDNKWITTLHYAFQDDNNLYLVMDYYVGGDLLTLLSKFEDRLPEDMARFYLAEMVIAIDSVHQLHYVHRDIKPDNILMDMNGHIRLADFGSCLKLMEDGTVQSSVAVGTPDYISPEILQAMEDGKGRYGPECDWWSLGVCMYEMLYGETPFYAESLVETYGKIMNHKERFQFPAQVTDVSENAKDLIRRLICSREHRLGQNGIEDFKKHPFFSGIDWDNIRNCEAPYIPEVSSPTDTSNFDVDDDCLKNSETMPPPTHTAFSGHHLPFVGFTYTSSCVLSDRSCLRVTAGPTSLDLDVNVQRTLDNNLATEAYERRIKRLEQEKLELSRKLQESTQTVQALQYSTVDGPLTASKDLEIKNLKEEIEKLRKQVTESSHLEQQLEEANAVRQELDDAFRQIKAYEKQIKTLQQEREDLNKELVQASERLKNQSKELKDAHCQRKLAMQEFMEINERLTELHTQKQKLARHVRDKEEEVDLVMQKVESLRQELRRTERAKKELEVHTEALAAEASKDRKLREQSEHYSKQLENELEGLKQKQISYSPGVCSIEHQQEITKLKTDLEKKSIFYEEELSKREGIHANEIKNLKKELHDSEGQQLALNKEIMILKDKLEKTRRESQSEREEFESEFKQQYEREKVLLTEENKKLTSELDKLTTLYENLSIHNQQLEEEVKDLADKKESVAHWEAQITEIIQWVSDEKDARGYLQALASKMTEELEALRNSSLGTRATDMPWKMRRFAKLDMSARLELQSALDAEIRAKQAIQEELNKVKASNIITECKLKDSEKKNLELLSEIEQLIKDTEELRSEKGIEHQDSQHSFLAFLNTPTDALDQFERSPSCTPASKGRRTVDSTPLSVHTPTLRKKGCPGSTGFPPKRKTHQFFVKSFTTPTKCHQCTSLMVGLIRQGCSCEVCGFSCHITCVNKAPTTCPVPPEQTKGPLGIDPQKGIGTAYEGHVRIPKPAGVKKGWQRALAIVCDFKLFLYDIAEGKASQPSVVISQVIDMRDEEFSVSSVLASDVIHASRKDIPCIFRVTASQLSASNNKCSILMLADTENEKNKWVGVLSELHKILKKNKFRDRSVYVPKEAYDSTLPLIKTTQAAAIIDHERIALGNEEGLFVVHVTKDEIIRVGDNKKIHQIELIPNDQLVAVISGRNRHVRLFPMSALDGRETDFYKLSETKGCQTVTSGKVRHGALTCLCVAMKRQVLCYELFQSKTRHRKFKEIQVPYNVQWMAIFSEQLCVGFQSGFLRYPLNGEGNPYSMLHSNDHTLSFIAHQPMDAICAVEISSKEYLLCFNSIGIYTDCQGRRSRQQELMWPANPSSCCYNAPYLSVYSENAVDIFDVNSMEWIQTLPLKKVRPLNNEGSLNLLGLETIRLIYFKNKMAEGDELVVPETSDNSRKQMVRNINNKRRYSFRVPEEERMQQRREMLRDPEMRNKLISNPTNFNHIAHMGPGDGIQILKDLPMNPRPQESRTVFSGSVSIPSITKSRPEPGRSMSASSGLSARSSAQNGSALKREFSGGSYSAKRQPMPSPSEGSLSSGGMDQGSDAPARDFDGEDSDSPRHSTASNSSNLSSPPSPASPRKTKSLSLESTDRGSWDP
Sequence of CAMKK1 (Q8N5S9 whole entry): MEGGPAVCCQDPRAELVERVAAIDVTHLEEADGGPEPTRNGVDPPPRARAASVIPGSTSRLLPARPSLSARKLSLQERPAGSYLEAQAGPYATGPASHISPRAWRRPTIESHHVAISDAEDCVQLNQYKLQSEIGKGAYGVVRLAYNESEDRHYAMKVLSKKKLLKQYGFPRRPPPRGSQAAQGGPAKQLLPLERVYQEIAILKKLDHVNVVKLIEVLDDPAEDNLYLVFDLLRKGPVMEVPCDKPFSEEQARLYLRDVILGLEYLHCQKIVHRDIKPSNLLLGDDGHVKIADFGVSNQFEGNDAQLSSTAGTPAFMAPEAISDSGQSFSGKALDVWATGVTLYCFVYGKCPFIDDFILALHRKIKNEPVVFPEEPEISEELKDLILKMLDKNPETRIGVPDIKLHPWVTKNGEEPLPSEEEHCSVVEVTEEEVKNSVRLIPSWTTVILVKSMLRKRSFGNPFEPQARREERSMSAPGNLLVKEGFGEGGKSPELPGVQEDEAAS

## C=CC(=O)N1CCC[C@@H](n2nc(-c3ccc(Oc4ccccc4)cc3)c3c(N)ncnc32)C1 [Ibrutinib]
EPHA1
  1 µM GBD00276 (ibrutinib), % inhibition: 10.7%
PLK2
  1 µM GBD00276 (ibrutinib), % inhibition: -1.576%
TTBK2
  1 µM GBD00276 (ibrutinib), % inhibition: 6.635%
STK10/LOK
  1 µM GBD00276 (ibrutinib), % inhibition: -13.28%
TSSK3
  1 µM GBD00276 (ibrutinib), % inhibition: -3.43%
PKN3
  1 µM GBD00276 (ibrutinib), % inhibition: 29.61%
SNRK
  1 µM GBD00276 (ibrutinib), % inhibition: 6.19%
KSR1
  1 µM GBD00276 (ibrutinib), % inhibition: 8.4%
MAP3K7
  1 µM GBD00276 (ibrutinib), % inhibition: -2.955%
EPHB1
  1 µM GBD00276 (ibrutinib), % inhibition: -0.8801%
ZNF33A/ZAK
  1 µM GBD00276 (ibrutinib), % inhibition: -3.326%
PINK1
  1 µM GBD00276 (ibrutinib), % inhibition: -6.021%
PDK1
  1 µM GBD00276 (ibrutinib), % inhibition: 7.444%
NTRK3/TRKC
  1 µM GBD00276 (ibrutinib), % inhibition: 9.419%
GSK3B
  1 µM GBD00276 (ibrutinib), % inhibition: 9.125%
CDC42BPA/MRCKA
  1 µM GBD00276 (ibrutinib), % inhibition: -8.638%
MASTL
  1 µM GBD00276 (ibrutinib), % inhibition: -9.51%
PDGFRB
  1 µM GBD00276 (ibrutinib), % inhibition: 19.79%
MYO3A
  1 µM GBD00276 (ibrutinib), % inhibition: -10.26%
CDK9/T1
  1 µM GBD00276 (ibrutinib), % inhibition: -10.19%
EPHB2
  1 µM GBD00276 (ibrutinib), % inhibition: 8.665%
MAPKAPK5/MK5
  1 µM GBD00276 (ibrutinib), % inhibition: 3.643%
SYK
  1 µM GBD00276 (ibrutinib), % inhibition: 6.138%
MNK2
  1 µM GBD00276 (ibrutinib), % inhibition: -1.826%
SLK
  1 µM GBD00276 (ibrutinib), % inhibition: -2.298%
MYLK3
  1 µM GBD00276 (ibrutinib), % inhibition: 0.8658%
PRKAA2/AMPK211
  1 µM GBD00276 (ibrutinib), % inhibition: 12.3%
CAMKK1
  1 µM GBD00276 (ibrutinib), % inhibition: 7.498%
NTRK2/TRKB
  1 µM GBD00276 (ibrutinib), % inhibition: 21.53%
NEK9
  1 µM GBD00276 (ibrutinib), % inhibition: 2.083%
GSK3A
  1 µM GBD00276 (ibrutinib), % inhibition: 12.02%
LRRK2
  1 µM GBD00276 (ibrutinib), % inhibition: -5.334%
SIK1
  1 µM GBD00276 (ibrutinib), % inhibition: 2.135%
CSNK1G2/CK1G2
  1 µM GBD00276 (ibrutinib), % inhibition: 17.59%
RPS6KA6/RSK4
  1 µM GBD00276 (ibrutinib), % inhibition: 23.9%
DCLK1/DCAML1
  1 µM GBD00276 (ibrutinib), % inhibition: -29.46%
MAPK13/P38D
  1 µM GBD00276 (ibrutinib), % inhibition: 0.9944%
CSNK1A1/CK1A1
  1 µM GBD00276 (ibrutinib), % inhibition: 2.433%

Source: publication PMC10337138 (Acta Neuropathologica Communications, 2023)
